ChEMBL document CHEMBL1155173, “Modulation of the cellular accumulation and intracellular activity of daptomycin towards phagocytized Staphylococcus aureus by the P-glycoprotein (MDR1) efflux transporter in human THP-1 macrophages and madin-darby canine kidney cells” (Antimicrob Agents Chemother, 2007)
Values after ≈ are worked out from the molar mass of the structure shown. Active and inactive are the calls of the source. The rule behind the calls is not given here.

How the values were obtained:
[1] = tested on: Staphylococcus aureus; assay: Antibacterial activity against methicillin-sensitive Staphylococcus aureus ATCC 25923 phagocytized in human THP1 cells after 24 hrs in presence of 1 mg/liter daptomycin; format: functional, organism-based; settings: THP-1
[2] = tested on: THP-1; assay: Decrease in intracellular calcium concentration in human THP1 cells at 100 uM after 60 mins; format: functional; design: scale not given: the % may be the effect or the level left
[3] = tested on: THP-1; assay: Cellular uptake in methicillin-sensitive Staphylococcus aureus ATCC 25923 phagocytized in human mdr1 siRNAs- induced MDR1 deficient human THP1 cells assessed as increase accumulation at 250 mg/liter after 24 hrs by […]; format: ADME, cell-based; settings: thp-1, 24 h
[4] = tested on: THP-1; assay: Decrease in intracellular calcium concentration in human THP1 cells at 250 uM after 60 mins; format: functional, cell-based
[5] = tested on: Staphylococcus aureus; assay: Antibacterial activity against methicillin-sensitive Staphylococcus aureus ATCC 25923 phagocytized in human THP1 cells after 24 hrs; format: functional, organism-based; settings: ATCC 25923, THP-1, 24 h
[6] = tested on: Staphylococcus aureus; assay: Antibacterial activity against methicillin-sensitive Staphylococcus aureus ATCC 25923 phagocytized in human THP1 cells assessed as concentration resulting in no apparent bacterial growth after 24 hrs; format: functional, THP-1
[7] = tested on: Staphylococcus aureus; assay: Antibacterial activity against methicillin-sensitive Staphylococcus aureus ATCC 25923 phagocytized in human THP1 cells assessed as decrease in CFU at 1 mg/liter after 24 hrs; format: functional, THP-1
[8] = tested on: Staphylococcus aureus; assay: Antibacterial activity against methicillin-sensitive Staphylococcus aureus ATCC 25923 phagocytized in human THP1 cells after 24 hrs in presence of 100 uM verapamil; format: functional, organism-based; settings: ATCC 25923, THP-1, 24 h
[9] = tested on: THP-1; assay: Cellular uptake in methicillin-sensitive Staphylococcus aureus ATCC 25923 phagocytized in human THP1 cells assessed as apparent cellular to extracellular concentration ratio at 250 mg/liter after 24 hrs under 2-deoxyglucose-induced ATP depleted condition by fluorimetry; format: ADME, cell-based; settings: thp-1, 24 h
[10] = tested on: Staphylococcus aureus; assay: Antibacterial activity against methicillin-sensitive Staphylococcus aureus ATCC 25923 phagocytized in human THP1 cells assessed as concentration resulting in no apparent bacterial growth after 24 hrs in presence of 100 uM verapamil; format: functional, THP-1
[11] = tested on: Staphylococcus aureus; assay: Antibacterial activity against methicillin-sensitive Staphylococcus aureus ATCC 25923 phagocytized in human THP1 cells assessed as decrease in CFU at 1 mg/liter after 24 hrs in presence of 100 uM verapamil; format: functional, THP-1
[12] = tested on: Staphylococcus aureus; assay: Antibacterial activity against methicillin-sensitive Staphylococcus aureus ATCC 25923 phagocytized in human THP1 cells after 24 hrs in presence of 0.5 uM elacridar; format: functional, organism-based; settings: ATCC 25923, THP-1, 24 h
[13] = tested on: Staphylococcus aureus; assay: Antibacterial activity against methicillin-sensitive Staphylococcus aureus ATCC 25923 phagocytized in human THP1 cells assessed as concentration resulting in no apparent bacterial growth after 24 hrs in presence of 0.5 uM elacridar; format: functional, THP-1
[14] = tested on: Staphylococcus aureus; assay: Antibacterial activity against methicillin-sensitive Staphylococcus aureus ATCC 25923 phagocytized in human THP1 cells assessed as decrease in CFU at 1 mg/liter after 24 hrs in presence of 0.5 uM elacridar; format: functional, THP-1
[15] = tested on: Staphylococcus aureus; assay: Antibacterial activity against methicillin-sensitive Staphylococcus aureus ATCC 25923 phagocytized in wild type MDCK cells after 24 hrs; format: functional, organism-based; settings: ATCC 25923, MDCK
[16] = tested on: Staphylococcus aureus; assay: Antibacterial activity against methicillin-sensitive Staphylococcus aureus ATCC 25923 phagocytized in wild type MDCK cells assessed as concentration resulting in no apparent bacterial growth after 24 hrs; format: functional
[17] = tested on: Staphylococcus aureus; assay: Antibacterial activity against methicillin-sensitive Staphylococcus aureus ATCC 25923 phagocytized in wild type MDCK cells assessed as decrease in CFU at 1 mg/liter after 24 hrs; format: functional
[18] = tested on: Staphylococcus aureus; assay: Antibacterial activity against methicillin-sensitive Staphylococcus aureus ATCC 25923 phagocytized in wild type MDCK cells after 24 hrs in presence of 100 uM verapamil; format: functional, organism-based; settings: ATCC 25923, MDCK
[19] = tested on: Staphylococcus aureus; assay: Antibacterial activity against methicillin-sensitive Staphylococcus aureus ATCC 25923 phagocytized in wild type MDCK cells assessed as concentration resulting in no apparent bacterial growth after 24 hrs in presence of 100 uM verapamil; format: functional
[20] = tested on: Staphylococcus aureus; assay: Antibacterial activity against methicillin-sensitive Staphylococcus aureus ATCC 25923 phagocytized in wild type MDCK cells assessed as decrease in CFU at 1 mg/liter after 24 hrs in presence of 100 uM verapamil; format: functional
[21] = tested on: Staphylococcus aureus; assay: Antibacterial activity against methicillin-sensitive Staphylococcus aureus ATCC 25923 phagocytized in MDCK cells over expressing human […] at 1 mg/liter after 24 hrs; format: functional, organism-based; settings: ATCC 25923, MDCK
[22] = tested on: Staphylococcus aureus; assay: Antibacterial activity against methicillin-sensitive Staphylococcus aureus ATCC 25923 phagocytized in MDCK cells over expressing human […] assessed as concentration resulting in no apparent bacterial growth after 24 hrs; format: functional
[23] = tested on: Staphylococcus aureus; assay: Antibacterial activity against methicillin-sensitive Staphylococcus aureus ATCC 25923 phagocytized in MDCK cells over expressing human […] assessed as decrease in CFU at 1 mg/liter after 24 hrs; format: functional
[24] = tested on: Staphylococcus aureus; assay: Antibacterial activity against methicillin-sensitive Staphylococcus aureus ATCC 25923 phagocytized in MDCK cells over expressing human […] after 24 hrs in presence of 100 uM verapamil; format: functional, organism-based; settings: ATCC 25923, MDCK
[25] = tested on: Staphylococcus aureus; assay: Antibacterial activity against methicillin-sensitive Staphylococcus aureus ATCC 25923 phagocytized in MDCK cells over expressing human […] assessed as concentration resulting in no apparent bacterial growth after 24 hrs in presence of 100 uM verapamil; format: functional
[26] = tested on: Staphylococcus aureus; assay: Antibacterial activity against methicillin-sensitive Staphylococcus aureus ATCC 25923 phagocytized in MDCK cells over expressing human […] assessed as decrease in CFU at 1 mg/liter after 24 hrs in presence of 100 uM verapamil; format: functional
[27] = tested on: THP-1; assay: Cellular uptake in methicillin-sensitive Staphylococcus aureus ATCC 25923 phagocytized in human THP1 cells assessed as apparent cellular to extracellular concentration ratio at 250 mg/liter after 24 hrs by fluorimetry; format: ADME, cell-based; settings: thp-1, 24 h
[28] = tested on: THP-1; assay: Cellular uptake in methicillin-sensitive Staphylococcus aureus ATCC 25923 phagocytized in human THP1 cells assessed as apparent cellular to extracellular concentration ratio at 250 mg/liter after 24 hrs by fluorimetry in presence of 100 uM verapamil; format: ADME, cell-based; settings: thp-1, 24 h
[29] = tested on: THP-1; assay: Cellular uptake in methicillin-sensitive Staphylococcus aureus ATCC 25923 phagocytized in human THP1 cells assessed as apparent cellular to extracellular concentration ratio at 250 mg/liter after 24 hrs by fluorimetry in presence of 1 uM ouabain; format: ADME, cell-based; settings: thp-1, 24 h
[30] = tested on: THP-1; assay: Cellular uptake in methicillin-sensitive Staphylococcus aureus ATCC 25923 phagocytized in human THP1 cells assessed as apparent cellular to extracellular concentration ratio at 250 mg/liter after 24 hrs by fluorimetry in presence of 250 uM gemfibrozil; format: ADME, cell-based; settings: thp-1, 24 h
[31] = tested on: MDCK; assay: Cellular uptake in methicillin-sensitive Staphylococcus aureus ATCC 25923 phagocytized in wild type MDCK cells assessed as apparent cellular to extracellular concentration ratio at 250 mg/liter after 24 hrs by fluorimetry; format: ADME, cell-based, Canis lupus familiaris; settings: dog
[32] = tested on: MDCK; assay: Cellular uptake in methicillin-sensitive Staphylococcus aureus ATCC 25923 phagocytized in wild type MDCK cells assessed as apparent cellular to extracellular concentration ratio at 250 mg/liter after 24 hrs by fluorimetry in presence of 100 uM verapamil; format: ADME, cell-based, Canis lupus familiaris; settings: dog
[33] = tested on: MDCK; assay: Cellular uptake in methicillin-sensitive Staphylococcus aureus ATCC 25923 phagocytized in wild type MDCK cells assessed as apparent cellular to extracellular concentration ratio at 250 mg/liter after 24 hrs by fluorimetry in presence of 1 uM ouabain; format: ADME, cell-based, Canis lupus familiaris; settings: dog
[34] = tested on: MDCK; assay: Cellular uptake in methicillin-sensitive Staphylococcus aureus ATCC 25923 phagocytized in wild type MDCK cells assessed as apparent cellular to extracellular concentration ratio at 250 mg/liter after 24 hrs by fluorimetry in presence of 250 uM gemfibrozil; format: ADME, cell-based, Canis lupus familiaris; settings: dog
[35] = tested on: MDCK; assay: Cellular uptake in methicillin-sensitive Staphylococcus aureus ATCC 25923 phagocytized in MDCK cells over expressing human MDR1 assessed as apparent cellular to extracellular concentration ratio at 250 mg/liter after 24 hrs by fluorimetry; format: ADME, cell-based, Canis lupus familiaris; settings: dog
[36] = tested on: MDCK; assay: Cellular uptake in methicillin-sensitive Staphylococcus aureus ATCC 25923 phagocytized in MDCK cells over expressing human MDR1 cells assessed as apparent cellular to extracellular concentration ratio at 250 mg/liter after 24 hrs by fluorimetry in presence of 100 uM verapamil; format: ADME, cell-based, Canis lupus familiaris; settings: dog
[37] = tested on: MDCK; assay: Cellular uptake in methicillin-sensitive Staphylococcus aureus ATCC 25923 phagocytized in MDCK cells over expressing human MDR1 cells assessed as apparent cellular to extracellular concentration ratio at 250 mg/liter after 24 hrs by fluorimetry in presence of 1 uM ouabain; format: ADME, cell-based, Canis lupus familiaris; settings: dog
[38] = tested on: MDCK; assay: Cellular uptake in methicillin-sensitive Staphylococcus aureus ATCC 25923 phagocytized in MDCK cells over expressing human MDR1 cells assessed as apparent cellular to extracellular concentration ratio at 250 mg/liter after 24 hrs by fluorimetry in presence of 250 uM gemfibrozil; format: ADME, cell-based, Canis lupus familiaris; settings: dog
[39] = tested on: THP-1; assay: Decrease in intracellular calcium concentration in human THP1 cells at 50 uM after 60 mins; format: functional; design: scale not given: the % may be the effect or the level left

COc1cc2c(cc1OC)CN(CCc1ccc(NC(=O)c3cccc4c(=O)c5cccc(OC)c5[nH]c34)cc1)CC2
Activity [1]: Dose-dependent effect

COc1ccc(CCN(C)CCCC(C#N)(c2ccc(OC)c(OC)c2)C(C)C)cc1OC (stereo unspecified) [VERAPAMIL]
Activity [1]: Dose-dependent effect | Activity [2]: 25%

C[C@@H]1O[C@@H](O[C@H]2C[C@@H](O)[C@]3(CO)[C@H]4[C@H](O)C[C@]5(C)[C@@H](C6=CC(=O)OC6)CC[C@]5(O)[C@@H]4CC[C@]3(O)C2)[C@H](O)[C@H](O)[C@H]1O [OUABAIN]
Activity [3]: Active

Cc1ccc(C)c(OCCCC(C)(C)C(=O)O)c1
Activity [4]: inactive

CCCCCCCCCC(=O)N[C@@H](Cc1c[nH]c2ccccc12)C(=O)N[C@H](CC(N)=O)C(=O)N[C@@H](CC(=O)O)C(=O)N[C@@H]1C(=O)NCC(=O)N[C@@H](CCCN)C(=O)N[C@@H](CC(=O)O)C(=O)N[C@H](C)C(=O)N[C@@H](CC(=O)O)C(=O)NCC(=O)N[C@H](CO)C(=O)N[C@@H]([C@H](C)CC(=O)O)C(=O)N[C@@H](CC(=O)c2ccccc2N)C(=O)O[C@@H]1C
EC50 [5]: 1.14 µg/mL (≈ 0.703 µM) | Activity [6]: 1.3 mg/L | log10cfu [7]: -1.6 | EC50 [8]: 0.31 µg/mL | Ratio [9]: 0.82 | Activity [10]: 0.4 mg/L | log10cfu [11]: -1.82 | EC50 [12]: 0.27 µg/mL | Activity [13]: 0.4 mg/L | log10cfu [14]: -1.67 | EC50 [15]: 0.62 µg/mL (≈ 0.383 µM) | Activity [16]: 0.6 mg/L | log10cfu [17]: -1.7 | EC50 [18]: 0.18 µg/mL | Activity [19]: 0.2 mg/L | log10cfu [20]: -2.01 | EC50 [21]: 2.67 µg/mL (≈ 1.65 µM) | Activity [22]: 2.1 mg/L | log10cfu [23]: -1.77 | EC50 [24]: 0.7 µg/mL | Activity [25]: 0.6 mg/L | log10cfu [26]: -1.78 | Activity [1]: Dose-dependent effect | Ratio [27]: 0.21 | Ratio [28]: 0.75 | Ratio [29]: 0.12 | Ratio [30]: 0.18 | Ratio [31]: 0.23 | Ratio [32]: 0.83 | Ratio [33]: 0.04 | Ratio [34]: 0.18 | Ratio [35]: 0.08 | Ratio [36]: 0.3 | Ratio [37]: 0.03 | Ratio [38]: 0.07

C[C@H](CCC(=O)[O-])C[C@H](C)C[C@H](C)C(=O)/C=C(\[O-])[C@H](C)C[C@H](C)C/C=C/[C@@H](C)[C@@H](O)[C@@H](C)[C@@H](O)C[C@@H]1CC[C@@](C)([C@H]2CC[C@@](C)([C@@H](C)O)O2)O1.[Ca+2] [IONOMYCIN CALCIUM]
Activity [39]: 75%
